One block for each molecule: values may come before it.
Molecular target: T1, human mAChR M1 (Homo sapiens, UniProt P11229)
T1 sequence (P11229 1-460): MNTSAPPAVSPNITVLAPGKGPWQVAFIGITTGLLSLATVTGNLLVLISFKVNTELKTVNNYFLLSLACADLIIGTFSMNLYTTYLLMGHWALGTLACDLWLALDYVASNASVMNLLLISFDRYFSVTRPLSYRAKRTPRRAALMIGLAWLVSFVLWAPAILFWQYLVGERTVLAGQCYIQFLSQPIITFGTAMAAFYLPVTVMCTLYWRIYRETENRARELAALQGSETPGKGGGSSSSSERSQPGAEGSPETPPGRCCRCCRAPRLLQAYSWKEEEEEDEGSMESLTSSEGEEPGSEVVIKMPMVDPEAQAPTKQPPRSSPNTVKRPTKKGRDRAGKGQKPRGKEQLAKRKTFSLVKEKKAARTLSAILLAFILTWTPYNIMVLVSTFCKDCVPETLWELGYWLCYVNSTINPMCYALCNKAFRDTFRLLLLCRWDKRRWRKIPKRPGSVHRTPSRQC
Test: mAChR M1 cell-based functional assay: calcium mobilization, positive allosteric modulator mode (increase in EC20 acetylcholine response)
Details: Table 2, human M1; for EC50: read-out: Human M1 EC50; for Emax: read-out: Human M1 Emax (%)
From the text: a. Cell Lines Expressing Muscarinic Acetylcholine Receptors
Chinese hamster ovary (CHO-K1) cells stably expressing rat (r)M1 were purchased from the American Type Culture Collection and cultured according to their indicated protocol. CHO cells stably expressing human (h)M2, hM3, and hM5 were described previously (Levey, et al., 1991); hMi and hM4 cDNAs were purchased from Missouri S&T cDNA Resource; rM4 cDNA was provided by T. I. Bonner (National Institutes of Health, Bethesda, Md.). rM2 and rM3 were cloned from a rat brain cDNA library and sequence verified. hMi, rM2, rM3, hM4, and rM4 cDNAs were used to stably transfect CHO-K1 cells purchased from the American Type Culture Collection using Lipofectamine2000. To make stable rM2, hM2, rM3, hM4, and rM4 cell lines for use in calcium mobilization assays, these cells also were stably transfected with a chimeric G-protein (Gqi5) (provided by B. R. Conklin, University of California, San Francisco) using Lipofectamine 2000. rMi, hMi, rM3, hM3, rM5, and hM5 cells were grown in Ham's F-12 medium containing 10% heat-inactivated fetal bovine serum (FBS), 20 mM HEPES, and 50 μg/mL G418 sulfate. rM2-Gqi5, hM2-Gqi5, and hM4-Gqi5 cells were grown in the same medium also containing 500 μg/mL Hygromycin B. Stable rM4-Gqi5 cells were grown in DMEM containing 10% heat-inactivated FBS, 20 mM HEPES, 400 μg/mL G418 sulfate, and 500 μg/mL Hygromycin B.
b. Cell-Based Functional Assay of Muscarinic Acetylcholine Receptor Activity
For high throughput measurement of agonist-evoked increases in intracellular calcium, CHO-K1 cells stably expressing muscarinic receptors were plated in growth medium lacking G418 and hygromycin at 15,000 cells/20 μL/well in Greiner 384-well black-walled, tissue culture (TC)-treated, clear-bottom plates (VWR). Cells were incubated overnight at 37° C. and 5% CO2. The next day, cells were washed using an ELX 405 (BioTek) with four washes (80 μL) of assay buffer then aspirated to 20 μL. Next, 20 μL of 16 μM Fluo-4/acetoxymethyl ester (Invitrogen, Carlsbad, Calif.) prepared as a 2.3 mM stock in DMSO and mixed in a 1:1 ratio with 10% (w/v) Pluronic F-127 and diluted in assay buffer was added to the wells and the cell plates were incubated for 50 min at 37° C. and 5% CO2. Dye was removed by washing with the ELX 405 (four […], washes of assay buffer) then aspirated to 20 μL. Compound master plates were formatted in an 11 point CRC format (1:3 dilutions) in 100% DMSO with a starting concentration of 10 mM using the BRAVO liquid handler (Agilent). Test compound CRCs were then transferred to daughter plates (240 nL) using the Echo acoustic plate reformatter (Labcyte, Sunnyvale, Calif.) and then diluted into assay buffer (40 μL) to a 2× stock using a Thermo Fisher Combi (Thermo Fisher Scientific, Waltham, Mass.).
Calcium flux was measured using the Functional Drug Screening System (FDSS) 6000 (Hamamatsu Corporation, Tokyo, Japan) as an increase in the fluorescent static ratio. Compounds were applied to cells (20 μL, 2×) using the automated system of the FDSS 6000 at 4 s into the 300 s protocol and the data were collected at 1 Hz. At 144 s into the 300s protocol, 10 μL of an EC20 concentration of the muscarinic receptor agonist acetylcholine was added (5×), followed by the addition of 12 μL an EC80 concentration of acetylcholine at the 230 s time point (5×). Agonist activity was analyzed as a concentration-dependent increase in calcium mobilization upon compound addition. Positive allosteric modulator activity was analyzed as a concentration-dependent increase in the EC20 acetylcholine response. Antagonist activity was analyzed as a concentration-dependent decrease in the EC80 acetylcholine response. Concentration-response curves were generated using a four-parameter logistical equation in XLfit curve fitting software (IDBS, Bridgewater, N.J.) for Excel (Microsoft, Redmond, Wash.) or Prism (GraphPad Software, Inc., San Diego, Calif.).

SMILES: Cc1ncc(Cc2cc(C(=O)N[C@@H]3CCCC[C@H]3O)nc3ccsc23)s1 [Compound 136, N-[(1R,2R)-2-hydroxycyclohexyl]-7-[(2-methylthiazol-5-yl)methyl]thieno[3,2-b]pyridine-5-carboxamide]
- EC50: 359 nM
- Emax: 81%

SMILES: Cn1ncc2nc(C(=O)NC[C@H]3CCCO3)cc(Cc3ccc(-c4cscn4)cc3)c21 [Compound 495, 1-methyl-N-[[(2R)-tetrahydrofuran-2-yl]methyl]-7-[(4-thiazol-4-ylphenyl)methyl]-pyrazolo[4,3-b]pyridine-5-carboxamide]
- EC50: 3910 nM
- Emax: 65.1%

SMILES: Cn1ccc2nc(C(=O)NC3CCOCC3)cc(Cc3ccc(-c4cscn4)cc3)c21 [Compound 451, 1-methyl-N-tetrahydropyran-4-yl-7-[(4-thiazol-4-ylphenyl)methyl]pyrrolo[3,2-b]pyridine-5-carboxamide]
- EC50: 184 nM
- Emax: 71.7%

SMILES: Cc1ccc(Cc2cc(C(=O)NC3C4CC5C[C@H]3CC(O)(C5)C4)nc3c(C)csc23)cn1 (stereo partly drawn) [Compound 109, N-[(1S)-5-hydroxy-2-adamantyl]-3-methyl-7-[(6-methyl-3-pyridyl)methyl]thieno[3,2-b]pyridine-5-carboxamide]
- EC50: 3250 nM
- Emax: 54.6%

SMILES: Cc1csc2c(Cc3ccc(-n4cccn4)cc3)cc(C(=O)NC3CC4(COC4)C3)nc12 [Compound 315, 3-methyl-N-(2-oxaspiro[3.3]heptan-6-yl)-7-[(4-pyrazol-1-ylphenyl)methyl]thieno[3,2-b]pyridine-5-carboxamide]
- EC50: 475 nM
- Emax: 82.3%

SMILES: Cn1ccc2nc(C(=O)N[C@H]3CCOC[C@@H]3O)cc(Cc3ccc(-n4cccn4)cc3)c21 [Compound 453, N-[(3R,4S)-3-hydroxytetrahydropyran-4-yl]-1-methyl-7-[(4-pyrazol-1-ylphenyl)methyl]pyrrolo[3,2-b]pyridine-5-carboxamide]
- EC50: 6.77 nM
- Emax: 63.1%

SMILES: O=C(NC12CC3CC(CC(O)(C3)C1)C2)c1cc(Cc2ccc(C(F)(F)F)nc2)c2sccc2n1 [Compound 95, N-(3-hydroxy-1-adamantyl)-7-[[6-(trifluoromethyl)-3-pyridyl]methyl]thieno[3,2-b]pyridine-5-carboxamide]
- EC50: 3130 nM
- Emax: 34.2%

SMILES: CCOC(c1ccc(C)nc1)c1cc(C(=O)N[C@@H]2CCCC[C@H]2O)nc2ccsc12 (stereo partly drawn) [Compound 86, 7-[ethoxy-(6-methyl-3-pyridyl)methyl]-N-[(1R,2R)-2-hydroxycyclohexyl]thieno[3,2-b]pyridine-5-carboxamide]
- EC50: 255 nM
- Emax: 87.7%

SMILES: COCC(C)NC(=O)c1cc(Cc2ccc(-c3cncs3)cc2)c2sccc2n1 (centres unmarked) [Compound 406, N-(2-methoxy-1-methyl-ethyl)-7-[(4-thiazol-5-ylphenyl)methyl]thieno[3,2-b]pyridine-5-carboxamide]
- EC50: 5050 nM
- Emax: 59.1%

Further lines, results first:

- EC50: 722 nM
- Emax: 88.5%
SMILES: Cn1cc(-c2ccc(Cc3cc(C(=O)N[C@@H]4CCOC4)nc4ccsc34)cc2)nn1 [Compound 150, 7-[[4-(1-methyltriazol-4-yl)phenyl]methyl]-N-[(3R)-tetrahydrofuran-3-yl]thieno[3,2-b]pyridine-5-carboxamide]

- EC50: 339 nM
- Emax: 71.9%
SMILES: Cn1ccc2nc(C(=O)NC3CC4(COC4)C3)cc(Cc3ccc(-c4cscn4)cc3)c21 [Compound 452, 1-methyl-N-(2-oxaspiro[3.3]heptan-6-yl)-7-[(4-thiazol-4-ylphenyl)methyl]pyrrolo[3,2-b]pyridine-5-carboxamide]

- EC50: 1870 nM
- Emax: 83.7%
SMILES: O=C(NC1CCCOC1)c1cc(Cc2ccc(-c3nccs3)cc2)c2sccc2n1 (centres unmarked) [Compound 366, N-tetrahydropyran-3-yl-7-[(4-thiazol-2-ylphenyl)methyl]thieno[3,2-b]pyridine-5-carboxamide]

- EC50: 2750 nM
- Emax: 52%
SMILES: Cn1ncc2nc(C(=O)NC3CC4(COC4)C3)cc(Cc3ccc(-c4cscn4)cc3)c21 [Compound 489, 1-Methyl-N-(2-oxaspiro[3.3]heptan-6-yl)-7-[(4-thiazol-4-ylphenyl)methyl]pyrazolo[4,3-b]pyridine-5-carboxamide]

- EC50: > 10000 nM
- Emax: 56.4%
SMILES: Cc1ccc(Cc2cc(C(=O)N[C@@H]3CCCNC3)nc3ccsc23)cn1 [Compound 265, 7-[(6-methyl-3-pyridyl)methyl]-N-[(3R)-3-piperidyl]thieno[3,2-b]pyridine-5-carboxamide]

- EC50: 134 nM
- Emax: 75.7%
SMILES: O=C(NC1CCOCC1)c1cc(Cc2ccc(-c3cscn3)cc2)c2sccc2n1 [Compound 232, N-tetrahydropyran-4-yl-7-[(4-thiazol-4-ylphenyl)methyl]thieno[3,2-b]pyridine-5-carboxamide]

- EC50: > 10000 nM
- Emax: 24.4%
SMILES: Cc1ccc(Cc2cc(C(=O)N[C@@H]3CCOC3)nc3ccsc23)cn1 [Compound 262]

- EC50: 703 nM
- Emax: 71.5%
SMILES: Cn1ccc(-c2ccc(Cc3cc(C(=O)NC[C@@H]4CCCO4)nc4ccsc34)cn2)n1 [Compound 414, 7-[[6-(1-methylpyrazol-3-yl)-3-pyridyl]methyl]-N-[[(2S)-tetrahydrofuran-2-yl]methyl]thieno[3,2-b]pyridine-5-carboxamide]

- EC50: 203 nM
- Emax: 74.5%
SMILES: Cn1cc(-c2ccc(Cc3cc(C(=O)NC4CC(F)(F)C4)nc4ccsc34)cn2)cn1 [Compound 345, N-(3,3-difluorocyclobutyl)-7-[[6-(1-methylpyrazol-4-yl)-3-pyridyl]methyl]thieno[3,2-b]pyridine-5-carboxamide]

- EC50: 428 nM
- Emax: 73.5%
SMILES: O=C(N[C@H]1CC[C@@H]1O)c1cc(Cc2ccc(-c3cncs3)cc2)c2sccc2n1 [Compound 405]

- EC50: 4060 nM
- Emax: 30.6%
SMILES: Cc1nn(C)cc1-c1ccc(Cc2cc(C(=O)N[C@H]3CCC[C@@H]3O)nc3ccsc23)cc1 [Compound 247, 7-[[4-(1,3-dimethylpyrazol-4-yl)phenyl]methyl]-N-[(1S,2S)-2-hydroxycyclopentyl]thieno[3,2-b]pyridine-5-carboxamide]

- EC50: 3300 nM
- Emax: 72.1%
SMILES: COC1CC(NC(=O)c2cc(Cc3ccc(-c4csc(C)n4)cc3)c3sccc3n2)C1 (centres unmarked) [Compound 180, N-(3-methoxycyclobutyl)-7-[[4-(2-methylthiazol-4-yl)phenyl]methyl]thieno[3,2-b]pyridine-5-carboxamide]

- EC50: 485 nM
- Emax: 73.4%
SMILES: O=C(N[C@H]1CCOC1)c1cc(Cc2ccc(-n3cccn3)cc2)c2sccc2n1 [Compound 278, 7-[(4-pyrazol-1-ylphenyl)methyl]-N-[(3S)-tetrahydrofuran-3-yl]thieno[3,2-b]pyridine-5-carboxamide]

Reference: US11111251B2, “Positive allosteric modulators of the muscarinic acetylcholine receptor M1” (Vanderbilt University, priority 2016, dated 2021)
